Data on 47 molecules can be found in ChEMBL document CHEMBL1132189, “Three-dimensional quantitative structure-activity relationship analyses using comparative molecular field analysis and comparative molecular similarity indices analysis to elucidate selectivity differences of inhibitors binding to trypsin, thrombin, and factor Xa” (J Med Chem, 1999).

One assay has as its target Coagulation factor X (Homo sapiens, UniProt P00742). In words: Binding affinity towards Coagulation factor Xa.
In another assay the target is T1, Serine protease 1 (Bos taurus, UniProt P00760).
T1 sequence (P00760 whole entry): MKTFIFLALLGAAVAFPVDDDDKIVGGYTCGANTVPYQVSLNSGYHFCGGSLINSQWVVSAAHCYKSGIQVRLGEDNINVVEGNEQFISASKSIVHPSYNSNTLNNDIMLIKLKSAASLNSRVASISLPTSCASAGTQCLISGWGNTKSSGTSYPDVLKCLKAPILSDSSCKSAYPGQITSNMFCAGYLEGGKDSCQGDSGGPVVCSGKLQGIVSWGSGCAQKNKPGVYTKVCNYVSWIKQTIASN
In words: Binding affinity towards trypsin.

A further assay has as its target Prothrombin (Bos taurus, UniProt P00735). In words: Binding affinity towards thrombin.

As usually defined, the Ki is the equilibrium dissociation constant of an inhibitor or competing ligand from its target. A lower Ki goes with tighter binding.

Sequence of Coagulation factor X (P00742 41-179 limits assumed): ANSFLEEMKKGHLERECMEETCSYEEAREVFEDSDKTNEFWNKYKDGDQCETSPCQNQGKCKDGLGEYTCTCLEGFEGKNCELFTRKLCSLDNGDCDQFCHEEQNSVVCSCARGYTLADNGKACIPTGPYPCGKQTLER
Sequence of Coagulation factor X (P00742 235-488 limits assumed): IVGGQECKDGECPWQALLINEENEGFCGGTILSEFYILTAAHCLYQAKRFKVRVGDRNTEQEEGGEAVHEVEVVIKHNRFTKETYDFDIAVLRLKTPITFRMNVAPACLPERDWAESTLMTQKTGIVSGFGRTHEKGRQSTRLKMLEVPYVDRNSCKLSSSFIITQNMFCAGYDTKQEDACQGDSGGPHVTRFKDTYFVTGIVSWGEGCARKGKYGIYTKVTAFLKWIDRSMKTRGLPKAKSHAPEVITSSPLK

In the case of `N=C(N)c1cccc(C[C@H](NS(=O)(=O)c2ccc3ccccc3c2)C(=O)N2CC(C(=O)O)=Cc3ccccc32)c1`, the Ki at Coagulation factor X is 41 µM; on Serine protease 1, 31 µM.
As to `CS(=O)(=O)N1CCN(C(=O)[C@H](Cc2cccc(C(=N)N)c2)NS(=O)(=O)c2cccc3ccccc23)CC1`, the Ki at Prothrombin is 0.026 µM; on Coagulation factor X it was 9.71 µM.
Turning to `CNC(=O)[C@H]1CCCCN1C(=O)[C@H](Cc1cccc(C(=N)N)c1)NS(=O)(=O)c1ccc2ccccc2c1`, the Ki was 2.3 µM at Prothrombin, 57 µM on Coagulation factor X and 7.94 µM on Serine protease 1.
Taken in the same sequence, the figures for `CCCCOC(=O)[C@H](Cc1cccc(C(=N)N)c1)NS(=O)(=O)c1ccc2ccccc2c1` were 0.013 µM, 3.1 µM and 0.26 µM.
With `N=C(N)c1cccc(C[C@H](NS(=O)(=O)c2ccc3ccccc3c2)C(=O)N2CCC[C@H](C(=O)O)C2)c1`, the Ki at Prothrombin was 1.1 µM; on Coagulation factor X it was […]; on Serine protease 1 it was 0.437 µM.
The corresponding values for `N=C(N)c1cccc(C[C@H](NS(=O)(=O)c2ccc3ccccc3c2)C(=O)N2CCC[C@H]2C(=O)OCc2ccccc2)c1` are 0.631 µM, 20 µM and 1 µM.
The corresponding values for `CC1CCN(C(=O)[C@H](Cc2cccc(C(=N)N)c2)NC(=O)OC(C)(C)C)CC1` are 1.2 µM, 64.6 µM and 14.1 µM.
The corresponding values for `N=C(N)c1cccc(C[C@H](NS(=O)(=O)c2ccc3ccccc3c2)C(=O)N2Cc3ccccc3C=C2C(=O)O)c1` are 0.12 µM, 54 µM and 4.5 µM.
Turning to `CN1CCN(C(=O)[C@H](Cc2cccc(C(=N)N)c2)NS(=O)(=O)c2ccc3ccccc3c2)CC1`, the Ki was 0.036 µM at Prothrombin, 30 µM at Coagulation factor X and 1.3 µM at Serine protease 1.
Regarding `CC(C)c1cc(C(C)C)c(S(=O)(=O)N[C@@H](Cc2cccc(C(=N)N)c2)C(=O)N2CCC[C@H](C(=O)O)C2)c(C(C)C)c1`, the Ki was 13 µM at Coagulation factor X and 2.4 µM at Serine protease 1.
As to `N=C(N)c1cccc(C[C@H](NS(=O)(=O)c2ccc3ccccc3c2)C(=O)N2CCC(C(=O)NCc3ccccc3)CC2)c1`, the inhibition constant (Ki) is 3.1 µM on Prothrombin, 35 µM on Coagulation factor X and 0.27 µM at Serine protease 1.
The corresponding values for `COC(=O)N1CCN(C(=O)[C@H](Cc2cccc(C(=N)N)c2)NS(=O)(=O)c2ccc3ccccc3c2)CC1` are 0.019 µM, 77.6 µM and 0.02 µM.
For the molecule `CC1CCN(C(=O)[C@H](Cc2cccc(C(=N)N)c2)NS(=O)(=O)c2cccc3cccnc23)CC1`, the results for the Ki on Prothrombin and at Coagulation factor X were 0.34 µM and 180 µM, respectively.
Consider `N=C(N)c1cccc(C[C@H](NS(=O)(=O)c2ccc3ccccc3c2)C(=O)OCc2ccccc2)c1`, for which the inhibition constant Ki is 0.042 µM at Prothrombin, 2.2 µM on Coagulation factor X and 0.52 µM on Serine protease 1.
With `COC(=O)C1CCN(C(=O)[C@H](Cc2cccc(C(=N)N)c2)NS(=O)(=O)c2ccc3ccccc3c2)CC1`, the Ki is 0.017 µM at Prothrombin, 42.7 µM on Coagulation factor X and 0.036 µM on Serine protease 1.
The corresponding values for `CC(C)OC(=O)[C@H](Cc1cccc(C(=N)N)c1)NS(=O)(=O)c1ccc2ccccc2c1` are 0.11 µM, 3.5 µM and 1.41 µM.
As for `CC(C)NC(=O)[C@H](Cc1cccc(C(=N)N)c1)NS(=O)(=O)c1ccc2ccccc2c1`, the Ki on Prothrombin was 6.19 µM; at Coagulation factor X it was 360 µM; on Serine protease 1, 16 µM.
The corresponding values for `COC(=O)[C@H]1CCCN(C(=O)[C@H](Cc2cccc(C(=N)N)c2)NS(=O)(=O)c2ccc3ccccc3c2)C1` are 0.151 µM, 18 µM and 0.389 µM.
Regarding `CC1CCN(C(=O)[C@H](Cc2cccc(C(=N)N)c2)NS(=O)(=O)C[C@]23CC[C@H](CC2=O)C3(C)C)CC1`, the Ki is 0.0141 µM on Prothrombin, 14.1 µM on Coagulation factor X and 0.631 µM on Serine protease 1.
The corresponding values for `CC1CCN(C(=O)[C@H](Cc2cccc(C(=N)N)c2)NS(=O)(=O)c2cccc3ccccc23)CC1` are 0.016 µM, 42 µM and 0.631 µM.
Taken in the same sequence, the figures for `N=C(N)c1cccc(C[C@H](NS(=O)(=O)c2ccc3ccccc3c2)C(=O)N2Cc3ccccc3C[C@@H]2C(=O)O)c1` were 0.018 µM, 41.5 µM and 0.13 µM.
For `CS(=O)(=O)N1CCN(C(=O)[C@H](Cc2cccc(C(=N)N)c2)NS(=O)(=O)c2ccc3ccccc3c2)CC1`, the Ki at Coagulation factor X was 22 µM; at Serine protease 1, 0.19 µM.
For the molecule `CNC(=O)[C@H](Cc1cccc(C(=N)N)c1)NS(=O)(=O)c1c(C)c(C)c2c(c1C)CCC(C)(C)O2`, the Ki on Coagulation factor X is 10 µM; on Serine protease 1 it was 32 µM.
In the case of `COC(=O)[C@@H]1CCCN1C(=O)[C@H](Cc1cccc(C(=N)N)c1)NS(=O)(=O)c1ccc2ccccc2c1`, the Ki at Prothrombin is 0.661 µM; at Coagulation factor X it was 110 µM; at Serine protease 1 it was 8.09 µM.
`COC(=O)C1CCN(C(=O)[C@H](Cc2cccc(C(=N)N)c2)NS(=O)(=O)c2c(C)cc(C)cc2C)CC1`: the results for the Ki at Prothrombin, at Coagulation factor X and at Serine protease 1 were 0.18 µM, 83.2 µM and 0.991 µM, respectively.
In the case of `CNC(=O)[C@H]1CCCN(C(=O)[C@H](Cc2cccc(C(=N)N)c2)NS(=O)(=O)c2ccc3ccccc3c2)C1`, the Ki at Prothrombin is 0.26 µM; at Coagulation factor X, 33.1 µM; at Serine protease 1, 0.31 µM.
The corresponding values for `N=C(N)c1cccc(C[C@H](NS(=O)(=O)c2ccc3ccccc3c2)C(=O)C(=O)O)c1` are 30 µM, 130 µM and 118 µM.
For the molecule `CC1CCN(C(=O)[C@H](Cc2cccc(C(=N)N)c2)NS(=O)(=O)c2ccc(C(C)(C)C)cc2)CC1`, the Ki is 0.005 µM at Prothrombin, 12 µM on Coagulation factor X and 0.2 µM on Serine protease 1.
The corresponding values for `CC(C)c1cc(C(C)C)c(S(=O)(=O)N[C@@H](Cc2cccc(C(=N)N)c2)C(=O)N2CCN(S(C)(=O)=O)CC2)c(C(C)C)c1` are 0.28 µM, 7.4 µM and 0.979 µM.
As to `N=C(N)c1cccc(C[C@H](NS(=O)(=O)c2ccc3ccccc3c2)C(=O)N2CCCCC2)c1`, the figures for the Ki at Prothrombin and on Coagulation factor X were 0.0646 µM and 38 µM, respectively.
`CC1CCN(C(=O)[C@H](Cc2cccc(C(=N)N)c2)NS(=O)(=O)c2ccc3ccccc3c2)CC1`: the affinity on Coagulation factor X corresponds to a Ki of 41 µM.
Regarding `Cc1c(C)c(S(=O)(=O)N[C@@H](Cc2cccc(C(=N)N)c2)C(=O)N2CCC(C)CC2)c(C)c2c1OC(C)(C)CC2`, the inhibitory constant (Ki) on Prothrombin is 0.034 µM; on Coagulation factor X, 80 µM; on Serine protease 1, 0.729 µM.
For the molecule `CC(C)c1cc(C(C)C)c(S(=O)(=O)N[C@@H](Cc2cccc(C(=N)N)c2)C(=O)N2CCC[C@H](C(=O)NCc3ccccc3)C2)c(C(C)C)c1`, the Ki on Prothrombin is 1.8 µM; on Coagulation factor X, 2.51 µM; at Serine protease 1, 0.46 µM.
Taken in the same sequence, the figures for `N=C(N)c1cccc(C[C@H](NS(=O)(=O)c2ccc3ccccc3c2)C(=O)N2CCC(C(=O)OCc3ccccc3)CC2)c1` were 0.21 µM, 8.09 µM and 0.067 µM.
`CC1CCN(C(=O)[C@H](Cc2cccc(C(=N)N)c2)NS(=O)(=O)c2c(C(C)C)cc(C(C)C)cc2C(C)C)CC1`: the Ki is 0.0741 µM at Prothrombin, 2 µM at Coagulation factor X and 0.69 µM on Serine protease 1.
Taken in the same sequence, the figures for `COC(=O)C1CCN(C(=O)[C@H](Cc2cccc(C(=N)N)c2)NS(=O)(=O)c2c(C(C)C)cc(C(C)C)cc2C(C)C)CC1` were 0.151 µM, 2.6 µM and 0.27 µM.
On to `CC1CCN(C(=O)[C@H](Cc2cccc(C(=N)N)c2)NS(=O)(=O)c2ccc3c(c2)C(=O)c2ccccc2C3=O)CC1`, for which the values for the inhibition constant (Ki) on Prothrombin, at Coagulation factor X and at Serine protease 1 were 0.026 µM, 2.3 µM and 0.074 µM, respectively.
Taken in the same sequence, the figures for `COC(=O)[C@H]1CCCCN1C(=O)[C@H](Cc1cccc(C(=N)N)c1)NS(=O)(=O)c1ccc2ccccc2c1` were 0.0692 µM, 46 µM and 1.9 µM.
On to `CNC(=O)[C@H]1CCCN(C(=O)[C@H](Cc2cccc(C(=N)N)c2)NS(=O)(=O)c2c(C(C)C)cc(C(C)C)cc2C(C)C)C1`, for which the figures for the Ki on Prothrombin, at Coagulation factor X and on Serine protease 1 were 0.23 µM, 1.51 µM and 0.794 µM, respectively.
The corresponding values for `Cc1cc(C)c(S(=O)(=O)N[C@@H](Cc2cccc(C(=N)N)c2)C(=O)N2CCC(C)CC2)c(C)c1` are 0.059 µM, 95.5 µM and 4 µM.
The corresponding values for `COc1cc(C)c(S(=O)(=O)N[C@@H](Cc2cccc(C(=N)N)c2)C(=O)N2CCN(S(C)(=O)=O)CC2)c(C)c1C` are 0.032 µM, 120 µM and 1.8 µM.
Take `CC(=O)N1CCN(C(=O)[C@H](Cc2cccc(C(=N)N)c2)NS(=O)(=O)c2ccc3ccccc3c2)CC1`: the Ki on Coagulation factor X is 48 µM; on Serine protease 1 it was 0.141 µM.
Turning to `Cc1ccc(S(=O)(=O)N[C@@H](Cc2cccc(C(=N)N)c2)C(=O)N2CCCCC2)cc1`, the Ki on Prothrombin is 0.34 µM; at Coagulation factor X, 15.1 µM.
In the case of `CC1CCN(C(=O)[C@@H](N)Cc2cccc(C(=N)N)c2)CC1`, the Ki on Coagulation factor X is 230 µM; on Serine protease 1, 29 µM.
Taken in the same sequence, the figures for `N=C(N)c1cccc(C[C@H](NS(=O)(=O)c2ccc3ccccc3c2)C(=O)N2CCC[C@H]2C(=O)O)c1` were 130 µM and 16 µM.
For `CC(C)(C)c1ccc(S(=O)(=O)N[C@@H](Cc2cccc(C(=N)N)c2)C(=O)N2CCN(S(C)(=O)=O)CC2)cc1`, the Ki is 0.00427 µM at Prothrombin and 0.16 µM at Serine protease 1.
Turning to `CNC(=O)[C@H](Cc1cccc(C(=N)N)c1)NS(=O)(=O)c1c(C)cc(C)cc1C`, the Ki at Coagulation factor X was 640 µM; on Serine protease 1 it was 1000 µM.
